# Assay results taken from ChEMBL document CHEMBL1143801, “Synthesis, SAR and antibacterial studies on novel chalcone oxazolidinone hybrids” (2007).
# Columns and labels:
# Format in all cases: functional
# Enterococcus faecium = test: Antibacterial activity against Enterococcus faecium ATCC 12202
# Staphylococcus aureus [1] = test: Antibacterial activity against Staphylococcus aureus ATCC 33591
# Staphylococcus aureus [2] = test: Antibacterial activity against Staphylococcus aureus ATCC 29213
# Enterococcus faecalis [3] = test: Antibacterial activity against Enterococcus faecalis ATCC 29212
# Enterococcus faecalis [4] = test: Antibacterial activity against Enterococcus faecalis NCTC 12201
# Staphylococcus aureus [5] = test: Antibacterial activity against Staphylococcus aureus ATCC 49951
MIC (Enterococcus faecium) [µg/mL],MIC (Staphylococcus aureus [1]) [µg/mL],MIC (Staphylococcus aureus [2]) [µg/mL],MIC (Enterococcus faecalis [3]) [µg/mL],MIC (Enterococcus faecalis [4]) [µg/mL],MIC (Staphylococcus aureus [5]) [µg/mL],SMILES
> 32,> 32,> 32,> 32,> 32,> 32,COc1ccc(C(=O)/C=C/c2ccc(N3C[C@H](CNC(C)=O)OC3=O)cc2)cc1
2,0.25,0.5,2,1,1,COC(=S)NC[C@H]1CN(c2ccc(C(=O)/C=C/c3ccccn3)c(F)c2)C(=O)O1
> 32,> 32,> 32,> 32,> 32,> 32,CC(=O)NC[C@H]1CN(c2ccc(C(=O)/C=C/c3ccc(F)cc3)cc2)C(=O)O1
16,4,8,16,16,4,CC(=O)NC[C@H]1CN(c2ccc(C(=O)/C=C/c3ccccn3)c(F)c2)C(=O)O1
64,32,32,64,64,32,CC(=O)NC[C@H]1CN(c2ccc(C(=O)/C=C/c3ccccn3)cc2)C(=O)O1
32,32,16,32,32,16,CC(=O)NC[C@H]1CN(c2ccc(C(=O)/C=C/c3ccco3)cc2)C(=O)O1
> 32,> 32,> 32,> 32,> 32,> 32,COc1ccc(/C=C/C(=O)c2ccc(N3C[C@H](CNC(C)=O)OC3=O)cc2)cc1OC
32,32,32,32,32,32,CC(=O)NC[C@H]1CN(c2ccc(C(=O)/C=C/c3nccn3C)c(F)c2)C(=O)O1
> 32,> 32,> 32,> 32,> 32,> 32,COC(=O)c1ccc(/C=C/C(=O)c2ccc(N3C[C@H](CNC(C)=O)OC3=O)cc2)cc1
32,32,32,32,32,32,CC(=O)NC[C@H]1CN(c2ccc(C(=O)/C=C/c3cccs3)c(F)c2)C(=O)O1
> 32,> 32,> 32,> 32,> 32,> 32,CC(=O)NC[C@H]1CN(c2ccc(/C=C/C(=O)c3c(F)cc(Cl)cc3Cl)cc2)C(=O)O1
> 64,64,> 64,> 64,> 64,> 64,CC(=O)NC[C@H]1CN(c2ccc(/C=C/C(=O)c3cccc(F)c3)cc2)C(=O)O1
16,16,16,16,16,16,CC(=O)NC[C@H]1CN(c2ccc(C(=O)/C=C/c3ncc[nH]3)c(F)c2)C(=O)O1
> 32,> 32,> 32,> 32,> 32,> 32,CC(=O)NC[C@H]1CN(c2ccc(/C=C/C(=O)c3ccccc3)cc2)C(=O)O1
32,32,> 32,32,32,32,CC(=O)NC[C@H]1CN(c2ccc(/C=C/C(=O)c3ccc(C)cc3)cc2)C(=O)O1
32,32,32,32,32,32,CC(=O)NC[C@H]1CN(c2ccc(/C=C/C(=O)c3ccc([N+](=O)[O-])cc3)cc2)C(=O)O1
> 32,> 32,> 32,> 32,> 32,> 32,CC(=O)NC[C@H]1CN(c2ccc(C(=O)/C=C/c3ccccc3)cc2)C(=O)O1
16,8,8,16,16,8,CC(=O)NC[C@H]1CN(c2ccc(C(=O)/C=C/c3ccco3)c(F)c2)C(=O)O1
> 32,> 32,> 32,> 32,> 32,> 32,COc1cc(/C=C/C(=O)c2ccc(N3C[C@H](CNC(C)=O)OC3=O)cc2)cc(OC)c1OC

SMILES,MIC (Enterococcus faecium) [µg/mL],MIC (Staphylococcus aureus [1]) [µg/mL],MIC (Staphylococcus aureus [2]) [µg/mL],MIC (Enterococcus faecalis [3]) [µg/mL],MIC (Enterococcus faecalis [4]) [µg/mL],MIC (Staphylococcus aureus [5]) [µg/mL]
CC(=O)NC[C@H]1CN(c2ccc(N3CCOCC3)c(F)c2)C(=O)O1 [LINEZOLID],2,1,–,–,–,–
CN[C@H](CC(C)C)C(=O)N[C@H]1C(=O)N[C@@H](CC(N)=O)C(=O)N[C@H]2C(=O)N[C@H]3C(=O)N[C@H](C(=O)N[C@H](C(=O)O)c4cc(O)cc(O)c4-c4cc3ccc4O)[C@H](O)c3ccc(c(Cl)c3)Oc3cc2cc(c3O[C@@H]2O[C@H](CO)[C@@H](O)[C@H](O)[C@H]2O[C@H]2C[C@](C)(N)[C@H](O)[C@H](C)O2)Oc2ccc(cc2Cl)[C@H]1O [VANCOMYCIN],> 32,–,–,2,> 32,–
